The structures appear in SMILES notation. Read-outs that look alike come from different tables or passages of the source. Where only a bound is given, the exact number is not on record here.

Assay [1] addresses human C3bBb (Homo sapiens (Human), UniProt P00751). As to the kind of experiment: Human C3bBb enzyme assay (C3a generation from C3, ELISA). Format: biochemical. The settings on record: read-out: Human C3b:Bb IC50 Avg. The essentials: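 C3bBb was preformed from human C3b, CFB and CFD at 1 μM each (30 min, RT) in PBS pH 7.4 with 100 μM NiCl2 and 0.05% CHAPS. Then 3 nM complex with 1 μM human C3 was incubated with compound for 1 h at RT. C3a was quantified by ELISA against a standard curve, and IC50 came from a 10-point 4-parameter fit.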
(In general: An ELISA detects its analyte on a solid surface through an enzyme-linked reagent.)

Assay [2] deals with MAC formation in normal human serum. As to the kind of experiment: Human serum MAC formation assay (zymosan-coated plates, 50% normal human serum). The settings on record: 50% normal human serum with EGTA, 37° C. 30 minutes. The essentials:
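Compounds preincubated 15 min at RT with 50% normal human serum in gelatin buffer plus 20 mM EGTA, then complement activated 30 min at 37 °C on zymosan-coated plates. C9 neoepitope ELISA, fluorogenic readout. Percent inhibition vs EDTA-serum baseline and EGTA-serum maximum; IC50 from 4-parameter fit of 10-point curves.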

The mark [3] stands for this setting: starred values: assay conducted with 1 nM C3b:Bb enzyme.
The mark [4] stands for this setting: 3 nM C3bBb complex, 1 μM human C3, 1 hour room temperature.

human C3bBb, sequence (P00751 260-764): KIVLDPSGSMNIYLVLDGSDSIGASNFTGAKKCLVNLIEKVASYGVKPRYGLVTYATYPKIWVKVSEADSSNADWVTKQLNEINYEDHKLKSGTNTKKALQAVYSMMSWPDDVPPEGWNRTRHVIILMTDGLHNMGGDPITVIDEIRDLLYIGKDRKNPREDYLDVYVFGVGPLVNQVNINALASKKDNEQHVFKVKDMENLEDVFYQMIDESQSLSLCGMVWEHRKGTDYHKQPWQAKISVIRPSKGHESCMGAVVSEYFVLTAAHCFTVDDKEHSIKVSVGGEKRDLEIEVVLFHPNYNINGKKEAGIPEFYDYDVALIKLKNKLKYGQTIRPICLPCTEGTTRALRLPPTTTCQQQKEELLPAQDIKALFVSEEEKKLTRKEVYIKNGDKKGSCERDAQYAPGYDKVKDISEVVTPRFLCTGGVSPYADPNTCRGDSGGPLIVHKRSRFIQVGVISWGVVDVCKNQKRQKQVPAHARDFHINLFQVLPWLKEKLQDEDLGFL
human C3bBb, sequence (P01024 23-667 partner): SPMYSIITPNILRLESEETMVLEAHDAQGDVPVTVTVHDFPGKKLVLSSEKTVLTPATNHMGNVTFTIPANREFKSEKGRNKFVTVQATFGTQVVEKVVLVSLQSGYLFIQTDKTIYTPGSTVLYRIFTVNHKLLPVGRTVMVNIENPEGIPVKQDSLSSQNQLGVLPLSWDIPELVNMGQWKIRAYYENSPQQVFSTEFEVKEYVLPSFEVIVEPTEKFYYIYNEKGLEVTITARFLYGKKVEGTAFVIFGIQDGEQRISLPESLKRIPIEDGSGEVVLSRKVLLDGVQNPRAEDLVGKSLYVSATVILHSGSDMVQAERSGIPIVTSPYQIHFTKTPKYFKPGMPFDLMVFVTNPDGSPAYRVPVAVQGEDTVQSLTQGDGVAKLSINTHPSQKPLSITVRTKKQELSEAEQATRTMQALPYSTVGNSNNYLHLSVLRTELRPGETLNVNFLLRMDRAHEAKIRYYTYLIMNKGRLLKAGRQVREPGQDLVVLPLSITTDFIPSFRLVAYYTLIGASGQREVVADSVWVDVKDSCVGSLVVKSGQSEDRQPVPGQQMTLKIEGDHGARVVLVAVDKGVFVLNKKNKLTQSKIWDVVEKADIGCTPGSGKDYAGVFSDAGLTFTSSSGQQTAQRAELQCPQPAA
human C3bBb, sequence (P01024 749-1663 partner): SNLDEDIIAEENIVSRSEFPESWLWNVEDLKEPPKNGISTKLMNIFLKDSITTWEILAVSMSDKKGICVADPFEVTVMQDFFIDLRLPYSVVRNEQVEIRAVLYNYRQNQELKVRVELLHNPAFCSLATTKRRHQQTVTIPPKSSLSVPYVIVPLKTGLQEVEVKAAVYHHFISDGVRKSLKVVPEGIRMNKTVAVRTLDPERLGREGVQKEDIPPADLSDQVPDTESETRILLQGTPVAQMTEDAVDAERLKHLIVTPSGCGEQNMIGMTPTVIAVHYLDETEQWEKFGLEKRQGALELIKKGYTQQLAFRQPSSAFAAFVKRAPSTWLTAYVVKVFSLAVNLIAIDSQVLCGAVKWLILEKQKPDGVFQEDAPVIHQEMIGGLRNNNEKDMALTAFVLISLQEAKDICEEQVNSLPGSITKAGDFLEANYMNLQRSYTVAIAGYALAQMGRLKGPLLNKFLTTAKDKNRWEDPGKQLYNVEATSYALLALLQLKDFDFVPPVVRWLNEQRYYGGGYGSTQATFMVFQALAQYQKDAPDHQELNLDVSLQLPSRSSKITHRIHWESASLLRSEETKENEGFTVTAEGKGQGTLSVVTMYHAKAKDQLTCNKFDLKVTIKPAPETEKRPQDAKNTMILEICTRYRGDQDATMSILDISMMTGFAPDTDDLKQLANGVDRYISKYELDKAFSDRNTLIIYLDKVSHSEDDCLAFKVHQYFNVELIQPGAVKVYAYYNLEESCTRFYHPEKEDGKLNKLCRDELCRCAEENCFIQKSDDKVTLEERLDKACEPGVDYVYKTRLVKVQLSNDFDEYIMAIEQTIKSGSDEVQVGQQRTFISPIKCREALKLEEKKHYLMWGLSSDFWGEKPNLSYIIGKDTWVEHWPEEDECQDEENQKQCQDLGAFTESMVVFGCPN

Regarding `COc1cc(C)c2[nH]ccc2c1CN1CCC2(COC2)C[C@H]1c1ccc(C(=O)O)cc1` [Example 32, (S)-4-(7-((5-methoxy-7-methyl-1H-indol-4-yl)methyl)-2-oxa-7-azaspiro[3.5]nonan-6-yl)benzoic acid], the IC50 (in general, the concentration that gives 50% inhibition) in assay [1] (setting [3]) was below 10 nM; in assay [2], below 100 nM.

Turning to `COc1cc(C)c2[nH]ccc2c1CN1CC[C@H](c2ccccn2)C[C@H]1c1ccc(C(=O)O)cc1` [Example 38, 4-((2S,4S)-1-((5-methoxy-7-methyl-1H-indol-4-yl)methyl)-4-(pyridin-2-yl)piperidin-2-yl)benzoic acid], the IC50 in assay [1] (setting [4]) lay within 50 to 100 nM; in assay [2], 200 to 300 nM.

Take `COc1cc(C)c2[nH]ccc2c1CN1CC2(CCC2)[C@H]1c1ccc(C(=O)O)cc1` [Example 40, (R)-4-(2-((5-methoxy-7-methyl-1H-indol-4-yl)methyl)-2-azaspiro[3.3]heptan-1-yl)benzoic acid]: the values for the half-inhibitory concentration (IC50) in assay [1] (setting [4]) and in assay [2] were above 100 nM and 300 to 500 nM, respectively.

On to `COc1cc(C)c2[nH]ccc2c1CN1CC[C@H](CCC(F)(F)F)C[C@H]1c1ccc(C(=O)O)cc1` [Example 42, 4-((2S,4S)-1-((5-methoxy-7-methyl-1H-indol-4-yl)methyl)-4-(3,3,3-trifluoropropyl)piperidin-2-yl)benzoic acid], for which the 50% inhibitory concentration (IC50) in assay [1] (setting [3]) was below 10 nM; in assay [2], 200 to 300 nM.

With `COc1cc(C)c2[nH]ccc2c1CN1CC[C@H](CC2CC2)C[C@H]1c1ccc(C(=O)O)cc1` [Example 44, 4-((2S,4S)-4-(cyclopropylmethyl)-1-((5-methoxy-7-methyl-1H-indol-4-yl)methyl)piperidin-2-yl)benzoic acid], the IC50 in assay [1] (setting [3]) is below 10 nM; in assay [2] it was below 100 nM.

Regarding `COc1cc(C)c2[nH]ccc2c1CN1CCC2(C[C@H]1c1ccc(C(=O)O)cc1)CC(F)(F)C2` [Example 45, (S)-4-(2,2-difluoro-7-((5-methoxy-7-methyl-1H-indol-4-yl)methyl)-7-azaspiro[3.5]nonan-6-yl)benzoic acid], the IC50 in assay [1] (setting [3]) is below 10 nM; in assay [2], below 100 nM.

As for `COc1cc(C)c2[nH]ccc2c1CN1CCC2(C[C@H]1c1ccc(C(=O)O)c(F)c1)CC(F)(F)C2` [Example 50, (S)-4-(2,2-difluoro-7-((5-methoxy-7-methyl-1H-indol-4-yl)methyl)-7-azaspiro[3.5]nonan-6-yl)-2-fluorobenzoic acid], the results for the IC50 in assay [1] (setting [3]) and in assay [2] were below 10 nM and below 100 nM, respectively.

As for `COc1cc(C)c2[nH]ccc2c1CN1CCC2(C[C@H]1c1ccc(C(=O)O)cc1)CC1(CC1)C2` [Example 51, (S)-4-(8-((5-methoxy-7-methyl-1H-indol-4-yl)methyl)-8-azadispiro[2.1.5^5.1^3]undecan-7-yl)benzoic acid], the results for the IC50 in assay [1] (setting [3]) and in assay [2] were below 10 nM and below 100 nM, respectively.

Consider `COc1cc(C)c2[nH]cc(Cl)c2c1CN1CCC2(C[C@H]1c1ccc(C(=O)O)cc1)CC(F)(F)C2` [Example 53, (S)-4-(7-((3-chloro-5-methoxy-7-methyl-1H-indol-4-yl)methyl)-2,2-difluoro-7-azaspiro[3.5]nonan-6-yl)benzoic acid], for which the IC50 in assay [1] (setting [3]) is below 10 nM; in assay [2], below 100 nM.

`COc1cc(C)c2[nH]cc(F)c2c1CN1CCC2(C[C@H]1c1ccc(C(=O)O)cc1)CC(F)(F)C2` [Example 54, (S)-4-(2,2-difluoro-7-((3-fluoro-5-methoxy-7-methyl-1H-indol-4-yl)methyl)-7-azaspiro[3.5]nonan-6-yl)benzoic acid]: the IC50 was below 10 nM in assay [1] (setting [3]) and below 100 nM in assay [2].

Consider `COc1cc(C)c2[nH]ccc2c1CN1CCC2(CC(=O)C2)C[C@H]1c1ccc(C(=O)O)cc1` [Example 58, (S)-4-(7-((5-methoxy-7-methyl-1H-indol-4-yl)methyl)-2-oxo-7-azaspiro[3.5]nonan-6-yl)benzoic acid], for which the IC50 in assay [1] (setting [3]) was below 10 nM; in assay [2], 100 to 200 nM.

These data come from patent US20250289804A1, “SUBSTITUTED INDOLE COMPOUNDS AND METHODS OF USE THEREOF” (NOVARTIS PHARMA AG, priority 2021, published 2025).
